Results taken from patent US20070049638A1, “Polymorphic forms of 3-amino-1-propanesulfonic acid” (Neurochem (International) Limited, priority 2005, published 2007).

Experiment: relative stability of the polymorphic forms (crystallisation and slurry interconversion experiments)
Assay type: physicochemical
Conditions: stated as 'believed to be'
Description: Thus in general, without wishing to be bound by theory, slower processes will favor the production of Form B. For example, slow addition of solvent, slow cooling rate and/or mixing will tend to favor the production of Form B, whereas fast solvent addition, fast cooling and/or minimal mixing time will favor production of Form A.
A mixture of 3-amino-1-propanesulfonic acid form A (0.7654 g) and form B (0.7880 g) were added to ethanol (5 mL) and water (1.25 mL) in a flask. The slurry was placed in a water bath at 5° C. and stirred for four hours. Solids were collected by vacuum filtration to afford form B.

Structure (SMILES) | thermodynamic stability of the polymorphic form (between about 5 and about 60° C.) | kinetic preference of the polymorphic form (generated from fast timescale experiments)
NCCCS(=O)(=O)O [Form B, 3-amino-1-propanesulfonic acid] | more thermodynamically stable form | –
NCCCS(=O)(=O)O [Form A, 3-amino-1-propanesulfonic acid] | – | kinetically favored form
